In paper PMC9851907, “A single 2′-O-methylation of ribosomal RNA gates assembly of a functional ribosome” (Nature Structural & Molecular Biology, 2022):

Target: T1, Nog2 (Nog2-3xFLAG) (Saccharomyces cerevisiae, UniProt P53742)
T1 construct: full-length, genomic C-terminal 3xFLAG-6xHis tag (kept); native anti-FLAG purification from yeast within pre-60S particle with unmodified G2922 (spb1-D52A cells)
Assay: cryo-EM structure, […] A
Assay type: binding
Details: Mg2+; GTPase active site; nucleotide co-purified; pre-60S with unmethylated G2922; Table 1 lists only Mg2+ as ligand

SMILES: Nc1nc2c(ncn2[C@@H]2O[C@H](COP(=O)(O)OP(=O)(O)O)[C@@H](O)[C@H]2O)c(=O)[nH]1 [GDP]
- cryo-EM structure, 2.9 A: switch I and switch II (motifs G2 and G3) are apparently ordered around GDP
